# Experiments:
# 17β-HSD3 [1] = target: T1, 17β-HSD3 (Homo sapiens, UniProt P37058); test: 17β-HSD3 SEAP assay (PSA reporter) in MDA MB 453/17β-HSD3 cells; assay type: cell-based; set-up: expressed in transfected cells; settings: MDA-MB453-17β-HSD3 cells, PSA-SEAP reporter, read-out: IC50, 17β-HSD3 cell based activity
# T1 sequence (P37058 1-310): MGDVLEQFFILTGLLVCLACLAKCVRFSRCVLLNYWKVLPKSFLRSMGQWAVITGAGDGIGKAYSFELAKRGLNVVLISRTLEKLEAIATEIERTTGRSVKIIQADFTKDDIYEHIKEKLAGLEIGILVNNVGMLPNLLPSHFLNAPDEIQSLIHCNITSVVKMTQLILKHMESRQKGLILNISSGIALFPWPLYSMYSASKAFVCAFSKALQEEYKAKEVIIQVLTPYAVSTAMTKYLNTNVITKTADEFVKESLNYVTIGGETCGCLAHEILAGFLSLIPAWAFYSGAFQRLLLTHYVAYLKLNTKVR
# Description: Cultured MDA MB 453/17β-HSD3 cells were trypsinized, spun at 1000 rpm for 10 minutes, and resuspended in DMEM/10% cFBS supplemented with 5 mM BES at a concentration of 4×10^7 cells per mL. The cells (aliquots of 1×10^7 cells) were then transiently transfected with 3 μg of the PSA-SEAP construct by electroporation at 0.22 kVolts and 960 μFD with a time constant of […]. After a short recovery period, the cells were spun down and resuspended in DMEM/10% cFBS and plated into 96-well tissue culture plates (5×10^5 cells per well in 50 μL). After overnight adherence, the compounds were diluted in DMEM/10% and cFBS was added to the cells. 24 hours later, the medium was removed, fresh media containing the compounds was added in the presence of 10 nM Androstenedione, and this mixture was allowed to incubate for 24 hours. 25 μL of the culture supernatant was then removed and plated into 96-well black Optiplates (Perkin Elmer) for SEAP measurement as described by the reagent manufacturer (Tropix). Briefly, the supernatant was heat inactivated at 65° C. for 30 minutes and then allowed to cool to room temperature. Assay buffer (25 μL, Tropix) was then added and allowed to mix for 5 minutes followed by the addition of the Reaction buffer (25 μL, Tropix) and the plates were then incubated for 20 minutes in the dark. Plates were then read using a Packard Instruments TopCount with luminescent detection and signal was captured for 10 seconds per well and photon emission (cps) was averaged. A standard MTS assay (Promega) as described by the manufacturer, was performed in parallel to normalize the data based on cell numbers. Data analysis including percent inhibition and IC50 determination, based on 10 point serially diluted curves in duplicate, was then performed using Microsoft Excel and XLFit.
# The analysis of 17β-HSD3 steroid conversion by TLC is hampered by the limitation to examine large numbers of compounds. […] To test this system, a prostate specific antigen (PSA) reporter plasmid was transfected into MDA-MB453 cells stably expressing 17β-HSD3 and stimulated with different concentrations of androstenedione (FIG. 5B).
# To evaluate the suitability of this cellular assay for monitoring 17β-HSD3 cell based activity, the inhibitory effects of 18β-glycyrrhetinic acid and […] were examined.
# 17β-HSD3 [2] = target: T1, 17β-HSD3; test: 17β-HSD3 scintillation proximity assay (SPA); assay type: biochemical; set-up: made in house; CHAPS-solubilised 100,000 x g supernatant; settings: for 17β-HSD3 inhibitory activity in the SPA: FIG. 3B
# Description: HEK293/17β-HSD3 cells were harvested by scraping or treatment with Cell Dissociation Buffer (Invitrogen) and collected in ice cold Phosphate Buffered Saline (PBS) containing a protease inhibitor cocktail (Complete Tabs, Roche Diagnostics). The cells were then pelleted by centrifugation at 1000 rpm and washed once more in the same buffer. The cells were then resuspended in 2× the cell pellet volume with ice cold lysis buffer (40 mM Tris-HCl pH7.5, 2 mM DTT, 1 mM EDTA, 10% Glycerol (v/v), 0.5% CHAPS (w/v), 1M 1-(3-sulfopropyl)pyridinium hydroxide, Complete Tab(s)) and dounce homogenized on ice. The crude lysate was then incubated on ice for 60 minutes to allow for membrane protein solubilization, followed by centrifugation at 100,000×g for 60 minutes at 4° C. The supernatant was then removed and dialyzed overnight at 4° C. against the enzyme storage buffer (40 mM Tris-HCl pH 7.5, 40 mM KCl, 2 mM DTT, 1 mM EDTA, 20% Glycerol (v/v), Complete Tab(s)). Protein concentration was determined by the Bradford assay, the enzyme was aliquotted, and stored at −80° C. Activity was assessed using the SPA described below.
# SPA beads conjugated to anti-mouse IgG were incubated overnight in SPA Bead Buffer (50 mM Tris pH 8.0, 10% Glycerol (v/v)), with anti-Testosterone monoclonal antibody (2 μg antibody per 1 mg of SPA beads) under gentle rotation. The antibody saturated bead complex was then spun down at 500 rpm for 10 minutes at 4° C. and the beads were resuspended in SPA Bead Buffer at a final concentration of 0.5 mg/160 μL. The anti-T/SPA Beads were then stored at 4° C. until needed. Enzymatic assays were conducted in 30 μL total reaction volumes in 96-well white Optiplates (Perkin Elmer). The reaction buffer consisted of 50 mM MES pH 6.0, 2 mM DTT, 0.1% CHAPS, 3 mM NADPH, 10% Glycerol (v/v), 850 nM 4-Androstene-3,17-Dione, and 50 nM [3H]4-Androstene-3,17-Dione (Specific Activity 70–110Ci/mmol). Compounds were diluted such that the final concentration of ethanol and DMSO would not exceed 3% (v/v) and 1% (v/v) respectively, corresponding to concentrations that had little or no effect on enzymatic activity (data not shown). Previously prepared and frozen 17β-HSD3 enzyme was diluted into ice cold buffer containing 50 mM Mes, 40 mM KCl, 2 mM DTT, 1 mM EDTA, and 10% glycerol (v/v) and added last to the reaction mixture. The reaction was allowed to proceed for 60 minutes at room temperature and was stopped by the addition of 10 μL of 0.1N HCl. After the reactions were stopped, an excess of the anti-T/SPA Beads (0.5 mg) were added to each well to a final volume of 200 μL. The plates were sealed and shaken at ˜200 rpm on an orbital shaker at room temp for at least 90 minutes or overnight at 4° C. After allowing the beads to settle, the amount of [3H]Testosterone produced in each well was determined by scintillation counting on a Perkin Elmer TopCount instrument and collected as DPMs. The data was then analyzed and percent inhibition and/or IC50 values, based on 10 point serially diluted curves in duplicate or triplicate, were calculated using Microsoft Excel and XLFit programs. […] Input samples and unbound supernatants, from the enzymatic reactions, were quantitated by scintillation counting to aid in the calculation of bound versus free testosterone produced. Km values were calculated using the Lineweaver-Burke formula and plots where 1/v=(Km+[s])/(Vmax [s]). […]
structure (smiles),measurement,setting,value
"C[C@]12C=CC(=O)C=C1C(=O)C[C@@H]1[C@@H]2CC[C@]2(C)C(=O)CC[C@@H]12 [1,4-androstadiene-1,6,17-trione]",IC50,17β-HSD3 [1]; FIG. 5C,1600 nM
same,17β-HSD3 inhibitory activity in the SPA,17β-HSD3 [2],potent inhibitory activity
COc1ccccc1CCNC(=O)c1cc(Oc2ccccc2)ccc1NC(=O)c1ccc(O)c(Cl)c1 [2-[(3-chloro-4-hydroxybenzoyl)amino]-N-[2-(2-methoxyphenyl)ethyl]-5-phenoxybenzamide],IC50,17β-HSD3 [1],300 nM
same,IC50,"17β-HSD3 [2]; read-out: IC50, 17β-HSD3 biochemical activity",60 nM
CC1(C)[C@@H](O)CC[C@]2(C)[C@H]3C(=O)C=C4[C@@H]5C[C@@](C)(C(=O)O)CC[C@]5(C)CC[C@@]4(C)[C@]3(C)CC[C@@H]12 [18β-glycyrrhetinic acid],IC50,17β-HSD3 [1]; FIG. 5C,3800 nM
same,17β-HSD3 inhibitory activity in the SPA,17β-HSD3 [2],potent inhibitory activity

# From patent US7138246B2, “Methods for identifying or screening for agents that modulate 17β-HSD3” (Bristol-Myers Squibb Company, priority 2004, dated 2006)
